Data on nine molecules can be found in patent US7829662B2, “Method of treating apoptosis and compositions thereof” (Dana Farber Cancer Institute, Inc., priority 2001, dated 2010).

The test system of one assay is Wt and DKO MEFs. As to the kind of experiment: TEM morphology of mitochondria in cells after death stimuli. Conditions: 12 hrs after treatment; 2 μM thapsigargin, 2 μg/ml brefeldin A, 1 μg/ml tunicamycin. It is filed as cell-based. The method, then:
For apoptosis induction, MEFs were plated in 24-well plates at a density of 10^4 cells/well and grown for 24 hrs (Wei et al, 2001). Apoptosis was initiated by 2 μM thapsigargin, 2 μg/ml brefeldin A, 1 μg/ml tunicamycin or by 5 hrs of heat shock (43° C. in a humidified atmosphere of 95% air 5% CO2). Apoptosis was detected by flow cytometric detection of annexin V staining (BD Pharmingen) 24 hrs after the induction of cell death.
Wt and DKO MEFs were treated where indicated with brefeldin A or heat shock. After 12 hrs cells were fixed and imaged. Bar, 200 nm. The insets show 2× magnification of the boxed mitochondria. […] Wt and DKO MEFs were treated with the indicated death stimulus and after 12 hrs cells were fixed, stained and TEMs collected. Morphometric analysis was conducted.

Assay [1] concerns mitochondria. As to the kind of experiment: Cytochrome c release from isolated liver mitochondria (immunoblot densitometry or ELISA). It is filed as biochemical, Balb/cJ mice. On the procedure: Mitochondria were isolated from liver of Balb/cJ mice by standard differential centrifugation, and resuspended in isolation buffer (IB) (0.2 M sucrose, 10 mM Tris-MOPS pH 7.4, 0.1 mM EGTA-Tris, 0.1% delipidated BSA).
At the indicated time, mitochondria were pelleted by centrifugation at 12000×g at 4° C. for 3 min, and resuspended in the same volume of EB. Cytochrome c release was determined either by densitometry (Stratagene Eagle Eye II, BioRad) of immunoblots, or by rat/mouse specific ELISA performed on mitochondrial pellet and supernatant diluted 1:20 in PBS containing 0.5% Triton X-100 (R&D systems, MN). Cytochrome c is reported as the percentage of the supernatant over the total (pellet plus supernatant).
For SDS-PAGE, 20 μg of mitochondrial protein was loaded in each lane of a 12% NuPAGE (NoVex, CA) gel. After separation, proteins were transferred onto PVDF membranes (Immobilon-P, Millipore, Calif.) and membranes were probed as indicated with the following primary antibodies: anti-cytochrome c (Pharmingen, CA, 1:1000); anti-BID (1:1500); anti-BAK (Calbiochem, CA, 1:1000). HRPO-conjugated secondary antibodies (CalTag, CA, 1:2000) were visualized by chemiluminescence (Amersham, N.J.).
Mitochondria were incubated with increasing amounts of digitonin to assess how much cytochrome c was released from IMS by the selective solubilization of the OM (Hoppel and Cooper, 107, 367-375, 1968). To monitor interaction of digitonin with the […], uncoupled respiration in the presence of excess exogenous cytochrome c was assessed. Specifically 0.5 mg/ml mitochondria was incubated in EB with the indicated concentration of digitonin. After 5 minutes, mitochondria were centrifuged and cytochrome c content in the resulting pellet and supernatant were determined as described. Uncoupled JO2, uncoupled respiratory rate was recorded in parallel experiments. After 5 minutes of incubation with the indicated concentration of digitonin, mitochondria were treated with 400 pmol CCCP×mg protein-1 in the presence of 10 nmol cytochrome c×mg protein.

The test system of assay [2] is wt mitochondria. As to the kind of experiment: Cytochrome b5-dependent NADH oxidation assay. It is filed as biochemical, Balb/cJ mice. On the procedure: (d), mitochondria were preincubated for 2 min with 800 pmol CsA×mg protein^−1. (a), no additions. After 15 min, respiratory chain inhibitors were added and after another 2 minutes NADH fluorescence reading started. Arrow, 20 nmol NADH×mg protein^−1. In (e), 200 nmol mersalyl×mg protein was added 1 min before NADH.
In the cytochrome b5-dependent NADH oxidation assay, 1 mg/ml mitochondria were incubated in EB and treated as indicated. 400 pmol CCCP, 2 nmol rotenone and 1 nmol antimycin A×mg protein^−1 were added after the time indicated and the reaction transferred to a cuvette. After 2 min, 10 μM NADH was added and its oxidation monitored as the decrease in NADH fluorescence in a LS50B spectrofluorimeter (Perkin Elmer) set with λex=366 nm and λem=455 nm, with 5 nm slits.

Assay [3] relates to mitochondria. As to the kind of experiment: Adenylate kinase (AK) release from mitochondria. In kind it is biochemical, Balb/cJ mice. Particulars: preincubation: 800 pmol CsA × mg protein^−1 or 0.1 μg × mg protein^−1 anti-BAK Ab. On the procedure: AK release was determined similar to that described for cytochrome c release. AK was quantified measuring its enzymatic activity by assessing the rate of NADH oxidation at 366 nm using a Beckman DU-10 spectrophotometer. 10 μl of the supernatant or pellet were added to a reaction mixture containing 0.5 mM phosphoenolpyruvate, ATP, AMP, 1 mM NADH, and 60 units of pyruvate kinase and lactate dehydrogenase, in 130 mM KCl, 6 mM MgSO4 and 100 mM Tris-Cl. Final volume 0.1 ml, pH 7.4, 25° C. AK release is reported (as described for cytochrome c) as the percentage of the supernatant over the total (pellet plus supernatant).

The subject of assay [4] is calcein loaded mitochondria. As to the kind of experiment: Release of matrix-entrapped calcein (transient PTP opening). Particulars: preincubated 3 min with 200 nmol/mg suramin; 320 pmol/mg tBID, 30 min. In kind it is biochemical, Balb/cJ mice. On the procedure:
To assess calcein release, mitochondria suspended in IB without BSA were loaded with 10 nmol×mg protein^−1 calcein-AM (Molecular Probes, Eugene, Oreg.) for 20 mins at room temperature in the dark. Following two washes in IB, the calcein loaded mitochondria were resuspended in IB at a final concentration of 10 mg/ml. 0.5 mg/ml calcein loaded mitochondria were incubated in EB and treated as described. After the indicated time, mitochondria were pelleted. Calcein was measured in an LS-50B spectrofluorimeter (Perkin Elmer) with excitation and emission wavelengths set at 488±2.5 nm and 542±2.5 nm, respectively.
After 30 min mitochondria were spun at 14000 g for 3 min at 4 C and the calcein content in the pellet and in the supernatant was determined. […] To determine if a BID α6 mutation variant, BID α6 mutein (SEQ ID NO:7), would inhibit cytochrome c release, His-tag p22 wt BID and the BID α6 mutein were expressed, purified on a Ni^2+ column, and cleaved with caspase 8.
Mitochondria were loaded with calcein and treated with 10 μM BID α6 14mer. Where noted, mitochondria were pretreated with 1 μM CsA. At the indicated time, mitochondria were pelleted by centrifugation and calcein in the pellet and in the supernatant was determined.

The test system of assay [5] is mitochondria. Description: Mitochondrial swelling by side scatter at 545 nm. In kind it is biochemical, Balb/cJ mice. Particulars: 400 μM Ca^2+, positive control. The method, then: tBID was evaluated to determine if it causes any swelling or depolarization that might reflect an opening of the PTP. Swelling of 0.5 mg/ml mitochondria incubated in EB was monitored by changes in side scatter at 545±2.5 nm using LS-50B spectrofluorimeter equipped with magnetic stirring at 25° C. Membrane potential changes of 0.5 mg/ml mitochondria incubated in experimental buffer were monitored from the dequenching of a 0.3 μM Rhodamine 123 (Molecular Probes, OR) solution in a LS-50B spectrofluorimeter at 25° C., using excitation and emission wavelengths set at 503±2.5 nm and 525±5 nm, respectively.
To determine if the BID α6 14mer (SEQ ID NO:1) induced mitochondrial swelling or release of cytochrome c across the mitochondrial outer membrane, mitochondria at 1 mg/ml were incubated in experimental buffer and, where indicated, 20 μM Ca^2+ and 10 μM 14mer were added. Where noted, mitochondria were preincubated with CsA. […] Mitochondria were incubated with 10 μM 14mer in the presence or in the absence of 1 μM CsA. At the indicated time in minutes, mitochondria were pelleted by centrifugation and cytochrome c in the pellet and in the supernatant was determined.

Assay [6] relates to wt mitochondria. Description: Ascorbate/TMPD-driven respiration assay. It is filed as biochemical, Balb/cJ mice. Conditions: 200 nmol Ca^2+ × mg protein^−1. The method, then: Symbols used are detailed in the legend. […] (a), no additions. […] Arrow, 6 mM ascorbate-Tris and 300 μM TMPD were added. Assays were developed to assess the amount of cytochrome c freely available in the IMS (FIGS. 3A, B). […] After the indicated time, 400 pmol CCCP and 1 nmol antimycin A×mg protein^−1 were added, and the reaction transferred to a Clark type oxygen electrode chamber. Final volume was 1 ml, 25° C. After 2 min, 6 mM ascorbate was added, followed after a further 3 min by 300 μM TMPD. The ascorbate-driven O2 consumption rate over the total TMPD-driven rate is plotted as a percentage of the ratio in the untreated mitochondria.

Entries after “also recorded” stand apart in the source; their conditions may differ. Peptide text beside a SMILES is read from it. * marks the point of attachment. Cbz = O=C(OCc1ccccc1)*; CH2F = FC*

`C[C@H]1CCC/C=C/[C@@H]2C[C@H](O)C[C@H]2[C@H](O)/C=C/C(=O)O1` [brefeldin A]: in the assay on Wt and DKO MEFs, the “mitochondrial morphology in cells” value was “frequent mitochondria with Class II morphology”.

As for “NH2-XMLXXXXLLAAAVA-COOH [BID α6 mutein, BID α6 mutation variant where two lysine residues were changed to alanine residues; p7/p15 caspase cleaved]”, the “cytochrome c released from mitochondria” value in the assay on mitochondria [1] (1.6 pmol p7/p15 caspase cleaved BID × mg protein^−1) is on record as ~20%. The “cytochrome c release from mitochondria” value with mitochondria [1] (1.6 pmol p7/p15 caspase cleaved BID × mg protein^−1, compared with wt p7/p15 BID) was “impaired release of cytochrome c; also recorded: does not completely release cytochrome c”. In the assay on wt mitochondria [2] (BID α6 mutein compared to wt), the “cytochrome c mobilization (cytochrome b5-dependent NADH oxidation)” value was “cytochrome c had not been mobilized; also recorded: fails to mobilize cytochrome c”.

On to `COC(=O)C[C@H](NC(=O)[C@H](C)NC(=O)[C@@H](NC(=O)OCc1ccccc1)C(C)C)C(=O)CF` [zVAD-fmk] (Cbz-Val-Ala-Asp(OMe)-CH2F), for which, in the assay with mitochondria [1] (preincubation: 800 pmol CsA × mg protein^−1 or 0.1 μg × mg protein^−1 anti-BAK Ab), the “effect on tBID induced cytochrome c release” value is “Neither anti-BCL-XL antibody nor the broad specificity caspase inhibitor zVAD-fmk had any effect”. For the same molecule, the “effect on tBID induced AK release” value in the assay on mitochondria [3] was “Neither anti-BCL-XL antibody nor the broad specificity caspase inhibitor zVAD-fmk had any effect”.

Take `COC(CNC(=O)c1ccccc1OCC(=O)O)[CH2][Hg][OH]` (centres unmarked) [mersalyl]: in the assay with wt mitochondria [2] (200 nmol mersalyl × mg protein added 1 min before NADH), the “effect on increases in NADH oxidation” value is recorded as “totally inhibited”.

In the case of `C/C=C(/C)C(=O)O[C@H]1C(C)=C2[C@H]([C@@H]1OC(=O)CCCCCCC)[C@@](C)(OC(C)=O)C[C@H](OC(=O)CCC)[C@@]1(O)[C@H]2OC(=O)[C@@]1(C)O` [thapsigargin], the “mitochondrial morphology in cells” value in the assay with Wt and DKO MEFs is given as “frequent mitochondria with Class II morphology”.

On to tunicamycin, for which the “mitochondrial morphology in cells” value in the assay on Wt and DKO MEFs was “frequent mitochondria with Class II morphology”.

Turning to `Cc1ccc(C(=O)Nc2ccc(S(=O)(=O)O)c3cc(S(=O)(=O)O)cc(S(=O)(=O)O)c23)cc1NC(=O)c1cccc(NC(=O)Nc2cccc(C(=O)Nc3cc(C(=O)Nc4ccc(S(=O)(=O)O)c5cc(S(=O)(=O)O)cc(S(=O)(=O)O)c45)ccc3C)c2)c1` [suramin], the “effect on tBID-induced calcein release (transient permeability transition)” value in assay [4] is on record as “blocked tBID-induced transient permeability transition; also recorded: specifically inhibits calcein release induced by tBID”.

Consider `[Ca+2]` [Ca^2+], for which the mitochondrial swelling result with mitochondria [5] was “maximal swelling”. Also, the ascorbate-driven respiration result in the assay with wt mitochondria [6] was “increases the ascorbate-driven respiration”. For the same molecule, in the assay with wt mitochondria [2] (200 nmol Ca^2+ × mg protein^−1), the “cytochrome b5-dependent NADH oxidation rate” value is given as “increased the rate of NADH oxidation”.

B1: myristoylated p7/p15 BID complex: Wt p22 BID cleaved with recombinant caspase 8 into the active p7/p15 BID complex (protein)
p7: MDSEVSNGSGLGAKHITDLLVFGFLQSSGCTRQELEVLGRELPVQAYWEADLEDELQTD
p15: GSQASRSFNQGRIEPDSESQEEIIHNIARHLAQIGDEMDHNIQPTLVRQLAAQFMNGSLSEEDKRNCLAKALDEVKTAFPRDMENDKAMLIMTMLLAKKVASHAPSLLRDVFHTTVNFINQNLFSYVRNLVRNEMD
modifications: left off: small tags and cut ends
Take B1: the “cytochrome c release from mitochondria” value with mitochondria [1] (0.32 pmol × mg protein^−1) is listed as “Complete cytochrome c release”.
